Patent US12091423B2, “Substituted 3,4,12,12a-tetrahydro-1H-[1,4]oxazino[3,4-c]pyrido[2,1-f][1,2,4]triazine-6,8-dione, pharmaceutical composition, method for the production and use thereof” (VIRIOM, INC., priority 2019, dated 2024)

Tested on: influenza A/Perth/265/2009 (H1N1pdm09) (H275Y)
Assay type: cell-based, influenza A virus

Q: `O=C1c2c(O)c(=O)ccn2N([C@@H]2c3ccc(F)c(F)c3CSc3ccsc32)[C@@H]2COCCN12` [1.3.2, (12aR)-7-hydroxy-12-[(10R)-6,7-difluoro-5,10-dihydrothieno[3,2-c][2]benzothiepin-10-yl]-3,4,12,12a-tetrahydro-1H-[1,4]oxazino[3,4-c]pyrido[2,1-f][1,2,4]triazine-6,8-dione] was tested. Which EC50 did it give?
A: The EC50 was 0.8 nM.
